From ChEMBL document CHEMBL3885861, “Open TG-GATES”

Species: Rattus norvegicus
Experiment: Open TG-GATES - Regimen: Daily Repeat
Assay type: toxicity, organism-based, Sprague-Dawley
Design: regimen Daily Repeat, gender Male, age 6 weeks
Settings: in vivo, po, route gavage; for APTT / Bas / Eos / Fbg / Hb / Ht / Lym / MCHC / MCV / Mono / Neu / PT / Plat / RBC / Ret / WBC: tissue Blood; for KIDNEY_L / KIDNEY_R / KIDNEY_TOTAL: tissue Kidney; for LIVER: tissue Liver; for ALP / ALT / AST / BUN / CRE / Ca / Cl / DBIL / GLC / IP / K / LDH / Na / PL / RALB / TBIL / TG / TP / gamma-GTP: tissue Plasma
[1] = 0 mg/kg, 72 h, dose level Control, time 3 day
[2] = 0 mg/kg, […], dose level Control, time 7 day
[3] = 0 mg/kg, […], dose level Control, time 14 day
[4] = 0 mg/kg, […], dose level Control, time 28 day
[5] = 100 mg/kg, 72 h, dose level Low, time 3 day
[6] = 100 mg/kg, […], dose level Low, time 7 day
[7] = 100 mg/kg, […], dose level Low, time 14 day
[8] = 100 mg/kg, […], dose level Low, time 28 day

## CN(C)C(=N)N=C(N)N [METFORMIN]
[1]
  TERMINAL_BW: 224.4 g
  APTT: 16.8 s
  Bas: 0.2%
  Eos: 1%
  Fbg: 246.8 mg/dL
  Hb: 13.1 g/dL
  Ht: 38.7%
  Lym: 75.4%
  MCHC: 34%
  MCV: 64.1 fL
  Mono: 3.4%
  Neu: 19.6%
  PT: 12.6 s
  Plat: 121.6 x10_4/uL
  RBC: 603.2 x10_4/ul
  Ret: 6.9%
  WBC: 114.3 x10_2/uL
  KIDNEY_L: 1 g
  KIDNEY_R: 1 g
  KIDNEY_TOTAL: 2 g
  LIVER: 10.6 g
  ALP: 1345.6 IU/L
  ALT: 69.8 IU/L
  AST: 80.6 IU/L
  BUN: 13 mg/dL
  CRE: 0.2 mg/dL
  Ca: 11 mg/dL
  Cl: 104.6 meq/L
  DBIL: 0.014 mg/dL
  GLC: 184.8 mg/dL
  IP: 8.5 mg/dL
  K: 4 meq/L
  LDH: 69.8 IU/L
  Na: 140.8 meq/L
  PL: 143.6 mg/dL
  RALB: 2.5 g/dL
  TBIL: 0.034 mg/dL
  TG: 71.2 mg/dL
  TP: 5.5 g/dL
  gamma-GTP: 1 IU/L
[2]
  TERMINAL_BW: 255.4 g
  APTT: 16.6 s
  Bas: 0%
  Eos: 1.2%
  Fbg: 272.8 mg/dL
  Hb: 13.6 g/dL
  Ht: 40.1%
  Lym: 77.8%
  MCHC: 34%
  MCV: 64.1 fL
  Mono: 3%
  Neu: 17.6%
  PT: 12 s
  Plat: 126.8 x10_4/uL
  RBC: 626.4 x10_4/ul
  Ret: 6%
  WBC: 90.7 x10_2/uL
  KIDNEY_L: 1 g
  KIDNEY_R: 1 g
  KIDNEY_TOTAL: 2.1 g
  LIVER: 11.7 g
  ALP: 1433.2 IU/L
  ALT: 43.2 IU/L
  AST: 69.6 IU/L
  BUN: 16.4 mg/dL
  CRE: 0.2 mg/dL
  Ca: 11.3 mg/dL
  Cl: 105.2 meq/L
  DBIL: 0.014 mg/dL
  GLC: 187 mg/dL
  IP: 7.8 mg/dL
  K: 4.3 meq/L
  LDH: 66.6 IU/L
  Na: 141.4 meq/L
  PL: 145.2 mg/dL
  RALB: 2.7 g/dL
  TBIL: 0.034 mg/dL
  TG: 91 mg/dL
  TP: 5.9 g/dL
  gamma-GTP: 1 IU/L
[3]
  TERMINAL_BW: 310.2 g
  APTT: 18.3 s
  Bas: 0%
  Eos: 0.8%
  Fbg: 252.2 mg/dL
  Hb: 14.1 g/dL
  Ht: 40.7%
  Lym: 77.8%
  MCHC: 34.5%
  MCV: 60.5 fL
  Mono: 3.4%
  Neu: 17.4%
  PT: 12.3 s
  Plat: 123 x10_4/uL
  RBC: 674 x10_4/ul
  Ret: 4.8%
  WBC: 104.1 x10_2/uL
  KIDNEY_L: 1.2 g
  KIDNEY_R: 1.2 g
  KIDNEY_TOTAL: 2.4 g
  LIVER: 14.4 g
  ALP: 1342.2 IU/L
  ALT: 43.2 IU/L
  AST: 81 IU/L
  BUN: 16.4 mg/dL
  CRE: 0.2 mg/dL
  Ca: 11 mg/dL
  Cl: 105.2 meq/L
  DBIL: 0.014 mg/dL
  GLC: 188.2 mg/dL
  IP: 7.1 mg/dL
  K: 4 meq/L
  LDH: 168 IU/L
  Na: 142.8 meq/L
  PL: 150.6 mg/dL
  RALB: 2.7 g/dL
  TBIL: 0.034 mg/dL
  TG: 139.2 mg/dL
  TP: 6 g/dL
  gamma-GTP: 1 IU/L
[4]
  TERMINAL_BW: 386.6 g
  APTT: 17.2 s
  Bas: 0.2%
  Eos: 1.4%
  Fbg: 260 mg/dL
  Hb: 15 g/dL
  Ht: 43.2%
  Lym: 78.6%
  MCHC: 34.7%
  MCV: 56.9 fL
  Mono: 2.6%
  Neu: 16.8%
  PT: 12.1 s
  Plat: 103.4 x10_4/uL
  RBC: 759.6 x10_4/ul
  Ret: 2.5%
  WBC: 118 x10_2/uL
  KIDNEY_L: 1.4 g
  KIDNEY_R: 1.4 g
  KIDNEY_TOTAL: 2.8 g
  LIVER: 15.6 g
  ALP: 1085 IU/L
  ALT: 41.8 IU/L
  AST: 60.8 IU/L
  BUN: 16 mg/dL
  CRE: 0.2 mg/dL
  Ca: 11.1 mg/dL
  Cl: 105.4 meq/L
  DBIL: 0.014 mg/dL
  GLC: 176.2 mg/dL
  IP: 6.6 mg/dL
  K: 3.9 meq/L
  LDH: 51.8 IU/L
  Na: 145 meq/L
  PL: 143.4 mg/dL
  RALB: 2.7 g/dL
  TBIL: 0.036 mg/dL
  TG: 134.2 mg/dL
  TP: 6.1 g/dL
  gamma-GTP: 1 IU/L
[5]
  TERMINAL_BW: 222.9 g
  APTT: 16.7 s
  Bas: 0.2%
  Eos: 0.6%
  Fbg: 255 mg/dL
  Hb: 13.3 g/dL
  Ht: 39.3%
  Lym: 79%
  MCHC: 33.9%
  MCV: 64.1 fL
  Mono: 3%
  Neu: 16.6%
  PT: 12.6 s
  Plat: 114.7 x10_4/uL
  RBC: 612.6 x10_4/ul
  Ret: 6.7%
  WBC: 119.8 x10_2/uL
  KIDNEY_L: 0.9 g
  KIDNEY_R: 0.9 g
  KIDNEY_TOTAL: 1.9 g
  LIVER: 10.6 g
  ALP: 1574.6 IU/L
  ALT: 56.2 IU/L
  AST: 78.6 IU/L
  BUN: 15 mg/dL
  CRE: 0.2 mg/dL
  Ca: 11 mg/dL
  Cl: 105.6 meq/L
  DBIL: 0.012 mg/dL
  GLC: 173.2 mg/dL
  IP: 8.3 mg/dL
  K: 4 meq/L
  LDH: 80.4 IU/L
  Na: 141.8 meq/L
  PL: 141.6 mg/dL
  RALB: 2.6 g/dL
  TBIL: 0.03 mg/dL
  TG: 72.8 mg/dL
  TP: 5.5 g/dL
  gamma-GTP: 1 IU/L
[6]
  TERMINAL_BW: 255.8 g
  APTT: 18.8 s
  Bas: 0%
  Eos: 1%
  Fbg: 277.8 mg/dL
  Hb: 13.6 g/dL
  Ht: 40.1%
  Lym: 77.8%
  MCHC: 33.9%
  MCV: 63 fL
  Mono: 3.4%
  Neu: 17.8%
  PT: 12.1 s
  Plat: 130 x10_4/uL
  RBC: 638 x10_4/ul
  Ret: 5.1%
  WBC: 97.2 x10_2/uL
  KIDNEY_L: 1 g
  KIDNEY_R: 1 g
  KIDNEY_TOTAL: 2.1 g
  LIVER: 12.7 g
  ALP: 1216.2 IU/L
  ALT: 59.4 IU/L
  AST: 80.2 IU/L
  BUN: 15.2 mg/dL
  CRE: 0.2 mg/dL
  Ca: 10.8 mg/dL
  Cl: 105.8 meq/L
  DBIL: 0.012 mg/dL
  GLC: 189.8 mg/dL
  IP: 7.9 mg/dL
  K: 4.1 meq/L
  LDH: 69.6 IU/L
  Na: 142 meq/L
  PL: 144 mg/dL
  RALB: 2.6 g/dL
  TBIL: 0.028 mg/dL
  TG: 96.4 mg/dL
  TP: 5.7 g/dL
  gamma-GTP: 0.8 IU/L
[7]
  TERMINAL_BW: 319.6 g
  APTT: 17.4 s
  Bas: 0%
  Eos: 1.2%
  Fbg: 255.2 mg/dL
  Hb: 13.9 g/dL
  Ht: 40.1%
  Lym: 77.6%
  MCHC: 34.6%
  MCV: 60.5 fL
  Mono: 2.8%
  Neu: 17.6%
  PT: 12.2 s
  Plat: 122.5 x10_4/uL
  RBC: 662.2 x10_4/ul
  Ret: 5%
  WBC: 109.5 x10_2/uL
  KIDNEY_L: 1.3 g
  KIDNEY_R: 1.3 g
  KIDNEY_TOTAL: 2.6 g
  LIVER: 15.1 g
  ALP: 1413 IU/L
  ALT: 51.8 IU/L
  AST: 70.6 IU/L
  BUN: 16.2 mg/dL
  CRE: 0.2 mg/dL
  Ca: 11 mg/dL
  Cl: 104 meq/L
  DBIL: 0.014 mg/dL
  GLC: 182.4 mg/dL
  IP: 7.2 mg/dL
  K: 3.9 meq/L
  LDH: 78.6 IU/L
  Na: 142.6 meq/L
  PL: 161 mg/dL
  RALB: 2.7 g/dL
  TBIL: 0.03 mg/dL
  TG: 116 mg/dL
  TP: 6 g/dL
  gamma-GTP: 1.2 IU/L
[8]
  TERMINAL_BW: 415.8 g
  APTT: 17.7 s
  Bas: 0.2%
  Eos: 1%
  Fbg: 259.2 mg/dL
  Hb: 15 g/dL
  Ht: 43%
  Lym: 76.6%
  MCHC: 34.8%
  MCV: 56.3 fL
  Mono: 3%
  Neu: 18.6%
  PT: 11.9 s
  Plat: 100.3 x10_4/uL
  RBC: 764.2 x10_4/ul
  Ret: 2.6%
  WBC: 134 x10_2/uL
  KIDNEY_L: 1.5 g
  KIDNEY_R: 1.5 g
  KIDNEY_TOTAL: 3 g
  LIVER: 17.9 g
  ALP: 1072.4 IU/L
  ALT: 46.4 IU/L
  AST: 67.8 IU/L
  BUN: 17.4 mg/dL
  CRE: 0.2 mg/dL
  Ca: 11.2 mg/dL
  Cl: 104.6 meq/L
  DBIL: 0.014 mg/dL
  GLC: 184.2 mg/dL
  IP: 6.7 mg/dL
  K: 3.9 meq/L
  LDH: 56.8 IU/L
  Na: 145.6 meq/L
  PL: 165.4 mg/dL
  RALB: 2.8 g/dL
  TBIL: 0.04 mg/dL
  TG: 183.8 mg/dL
  TP: 6.3 g/dL
  gamma-GTP: 1 IU/L
